# From patent publication US11819532B2, “Peptide macrocycles against Acinetobacter baumannii” (Hoffmann-La Roche Inc., priority 2018, dated 2023)
# pIC50: −log10 of the molar value.
# Test system: A. baumannii ATCC 17978
# Experiment: 50% growth inhibitory concentration (IC50) determination, antimicrobial susceptibility testing
# Format: cell-based
# Conditions: Acinetobacter baumannii; 50% growth inhibition, A. baumannii strain ATCC17978, Iso-Sensitest medium; read-out: IC50 ATCC17978
# Experimental: The in vitro antimicrobial activity of the compounds was alternatively determined according to the following procedure:
# The assay used a 10-points Iso-Sensitest broth medium to measure quantitatively the in vitro activity of the compounds against A. baumannii ATCC 17978.
# Stock compounds in DMSO were serially twofold diluted (e.g. range from 50 to 0.097 μM or from 10 to 0.020 μM final concentration) in 384 wells microtiter plates and inoculated with 49 μl the bacterial suspension in Iso-Sensitest medium to have a final cell concentration of ˜5×10^(5)CFU/ml in a final volume/well of 50 μl/well. Microtiter plates were incubated at 35±2° C.
# Bacterial cell growth was determined with the measurement of optical density at X=600 nm each 20 minutes over a time course of 16h.
# Growth inhibition was calculated during the logarithmic growth of the bacterial cells with determination of the concentration inhibiting 50% (IC50) and 90% (IC90) of the growth.
# Table 1 provides the 50% growth inhibitory concentrations (IC50) in micromoles per liter of the compounds of present invention obtained against the A. baumannii strain ATCC17978.
row,SMILES,pIC50
1,"CN1C(=O)[C@H](CCCCN)NC(=O)[C@H](CCCN)NCc2cccnc2Sc2c(Cl)ccc(-c3ccc(C(=O)O)nc3)c2CNC(=O)[C@@H]1Cc1c[nH]c2ccccc12 [Example 2.02, 5-[(11S,14S,17S)-14-(4-aminobutyl)-11-(3-aminopropyl)-25-chloro-17-(1H-indo1-3-ylmethyl)-16-methyl-12,15,18-trioxo-2-thia-4,10,13,16,19-pentazatricyclo[19.4.0.03,8]pentacosa-1(25),3,5,7,21,23-hexaen-22-yl]pyridine-2-carboxylic acid]",7.54
2,"CN1C(=O)[C@H](CCCCN)NC(=O)[C@H](CCCN)NCc2cccnc2Sc2c(Cl)ccc(-c3ccc(C(=O)O)c(O)c3)c2CNC(=O)[C@@H]1Cc1c[nH]c2ccccc12 [Example 3.00, 4-[(1 S,14S,17S)-14-(4-Aminobutyl)-1-(3-aminopropyl)-25-chloro-17-(1H-indol-3-ylmethyl)-16-methyl-12,15,18-trioxo-2-thia-4,10,13,16,19-pentazatricyclo[19.4.0.03,8]pentacosa-1(21), 3(8), 4,6,22,24-hexaen-22-yl]-2-hydroxy-benzoic Acid]",7.41
3,"CN1C(=O)[C@H](CCC(F)(F)CN)NC(=O)[C@H](CCCN)NCc2cccnc2Sc2c(Cl)ccc(-c3ccc(C(=O)O)cc3)c2CNC(=O)[C@@H]1Cc1c[nH]c2ccccc12 [Example 4.00, 4-[(11S,14S,17S)-14-(4-Amino-3,3-difluoro-butyl)-11-(3-aminopropyl)-25-chloro-17-(1H-indol-3-ylmethyl)-16-methyl-12,15,18-trioxo-2-thia-4,10,13,16,19-pentazatricyclo[19.4.0.03,8]pentacosa-1(21), 3,5,7,22,24-hexaen-22-yl]benzoic Acid]",7.72
4,"CN1C(=O)[C@H](CCCCN)NC(=O)[C@H](CCC(N)=O)NCc2cccnc2Sc2c(Cl)ccc(-c3ccc(C(=O)O)cc3)c2CNC(=O)[C@@H]1Cc1c[nH]c2ccccc12 [Example 5.00, 4-[(11S,14S,17S)-14-(4-aminobutyl)-1-(3-amino-3-oxo-propyl)-25-chloro-17-(1H-indol-3-ylmethyl)-16-methyl-12,15,18-trioxo-2-thia-4,10,13,16,19-pentazatricyclo[19.4.0.03,8]pentacosa-1(21), 3,5,7,22,24-hexaen-22-yl]benzoic Acid]",7.17
5,"Cc1[nH]c2ccccc2c1C[C@H]1C(=O)NCc2c(-c3ccc(C(=O)O)cc3)ccc(Cl)c2Sc2ncccc2CN[C@@H](CCCN)C(=O)N[C@@H](CCCCN)C(=O)N1C [Example 7.00, 4-[(11S,14S,17S)-14-(4-Aminobutyl)-11-(3-aminopropyl)-25-chloro-16-methyl-17-[(2-methyl-1H-indol-3-yl)methyl]-12,15,18-trioxo-2-thia-4,10,13,16,19-pentazatricyclo[19.4.0.03,8]pentacosa-1(25), 3,5,7,21,23-hexaen-22-yl]benzoic Acid]",7.55
6,"CN1C(=O)[C@H](CCCCN)NC(=O)[C@H](CCCN)NCc2nccnc2Sc2c(Cl)ccc(-c3ccc(C(=O)O)cc3)c2CNC(=O)[C@@H]1Cc1c[nH]c2ccccc12 [Example 8.00, 4-[(11S,14S,17S)-14-(4-Aminobutyl)-11-(3-aminopropyl)-25-chloro-17-(1H-indol-3-ylmethyl)-16-methyl-12,15,18-trioxo-2-thia-4,7,10,13,16,19-hexazatricyclo[19.4.0.03,8]pentacosa-1(21), 3,5,7,22,24-hexaen-22-yl]benzoic Acid]",7.70
7,"CN1C(=O)[C@H](CCCCN)NC(=O)[C@H](CCCN)NCc2cccnc2Sc2c(F)ccc(-c3ccn(/C=C/C(=O)O)c(=O)c3)c2CNC(=O)[C@@H]1Cc1c[nH]c2ccccc12 [Example 9.02, (E)-3-[4-[(11S,14S,17S)-14-(4-Aminobutyl)-11-(3-aminopropyl)-25-fluoro-17-(1H-indol-3-ylmethyl)-16-methyl-12,15,18-trioxo-2-thia-4,10,13,16,19-pentazatricyclo[19.4.0.03,8]pentacosa-1(25),3(8),4,6,21,23-hexaen-22-yl]-2-oxo-1-pyridyl]prop-2-enoic acid]",7.06
8,"CN1C(=O)[C@H](CCCN)NC(=O)[C@H](CCCN)NCc2cccnc2Sc2c(Cl)ccc(-c3ccc(C(=O)O)cc3)c2CNC(=O)[C@@H]1Cc1c[nH]c2ccccc12 [Example 12.00, 4-[(11S,14S,17S)-11,14-bis(3-Aminopropyl)-25-chloro-17-(1H-indol-3-ylmethyl)-16-methyl-12,15,18-trioxo-2-thia-4,10,13,16,19-pentazatricyclo[19.4.0.03,8]pentacosa-1(21), 3,5,7,22,24-hexaen-22-yl]benzoic Acid]",7.72
9,"CN1C(=O)[C@H](CCN)NC(=O)[C@H](CCCN)NCc2cccnc2Sc2c(Cl)ccc(-c3ccc(C(=O)O)cc3)c2CNC(=O)[C@@H]1Cc1c[nH]c2ccccc12 [Example 13.00, 4-[(11S,14S,17S)-14-(2-Aminoethyl)-11-(3-aminopropyl)-25-chloro-17-(1H-indol-3-ylmethyl)-16-methyl-12,15,18-trioxo-2-thia-4,10,13,16,19-pentazatricyclo[19.4.0.03,8]pentacosa-1(25), 3(8), 4,6,21,23-hexaen-22-yl]benzoic Acid]",7.70
10,"CN1C(=O)[C@H](CCCN)NC(=O)[C@H](CCCN)NCc2cccnc2Sc2c(F)ccc(-c3ccc(C(=O)O)cc3)c2CNC(=O)[C@@H]1Cc1c[nH]c2ccccc12 [Example 14.00, 4-[(1 S,14S,17S)-11,14-bis(3-Aminopropyl)-25-fluoro-17-(H-indol-3-ylmethyl)-16-methyl-12,15,18-trioxo-2-thia-4,10,13,16,19-pentazatricyclo[19.4.0.03,8]pentacosa-1(25), 3(8), 4,6,21,23-hexaen-22-yl]benzoic Acid]",7.68
11,"CN1C(=O)[C@H](CCCCN)NC(=O)[C@H](CCN)NCc2cccnc2Sc2c(Cl)ccc(-c3ccc(C(=O)O)cc3)c2CNC(=O)[C@@H]1Cc1c[nH]c2ccccc12 [Example 15.00, 4-[(1 S,14S,7S)-14-(4-Aminobutyl)-11-(2-aminoethyl)-25-chloro-17-(1H-indol-3-ylmethyl)-16-methyl-12,15,18-trioxo-2-thia-4,10,13,16,19-pentazatricyclo[19.4.0.03,8]pentacosa-1(25), 3(8), 4,6,21,23-hexaen-22-yl]benzoic Acid]",7.70
12,"CN1C(=O)[C@H](CCCN)NC(=O)[C@H](CCN)NCc2cccnc2Sc2c(Cl)ccc(-c3ccc(C(=O)O)cc3)c2CNC(=O)[C@@H]1Cc1c[nH]c2ccccc12 [Example 16.00, 4-[(11S,14S,17S)-11-(2-Aminoethyl)-14-(3-aminopropyl)-25-chloro-17-(1H-indol-3-ylmethyl)-16-methyl-12,15,18-trioxo-2-thia-4,10,13,16,19-pentazatricyclo[19.4.0.03,8]pentacosa-1(25), 3(8), 4,6,21,23-hexaen-22-yl]benzoic Acid]",7.70
13,"CN1C(=O)[C@H](CCCN)NC(=O)[C@H](CCCN)NCc2cccnc2Sc2cccc(-c3ccc(C(=O)O)cc3)c2CNC(=O)[C@@H]1Cc1c[nH]c2ccccc12 [Example 17.00, 4-[(1 S,14S,17S)-11,14-bis(3-Aminopropyl)-17-(1H-indol-3-ylmethyl)-16-methyl-12,15,18-trioxo-2-thia-4,10,13,16,19-pentazatricyclo[19.4.0.03,8]pentacosa-1(25), 3 (8),4,6,21,23-hexaen-22-yl]benzoic Acid]",7.12
